According to patent publication EP4656179A1, “COMPOSITION CONTAINING STREPTOCOCCUS SP. STRAIN FOR PREVENTION, ALLEVIATION, OR TREATMENT OF SKIN DISEASES” (Cosmax, Inc., priority 2023, dated 2024):

Legend:
Assay type in all cases: cell-based, human
Conditions in all cases: HaCaT cells, IFN-γ 10 ng/mL; 1, 10, and 100 ppm; 24 hours; GAPDH as standard
CCL17 = assay: Marker gene expression in IFN-γ atopic dermatitis cell model (HaCaT), real-time PCR: CCL17
Description: (§1) To verify the effect of the Cyclo(Gly-Pro) of alleviating atopic dermatitis, an in vitro efficacy evaluation was conducted.
(§2) First, human keratinocytes, HaCaT cells, were purchased from the American Type Culture Collection (ATCC; Manassas, VA, USA) and cultured in DMEM (HyClone, Logan, UT, USA) supplemented with 10 % FBS (HyClone) and 1 % antibiotic-antimycotic solution (Welgene, Daegu, Korea). The cells were maintained at 37 °C in a 5 % CO2 incubator. After isolating the cells using trypsinization, 4 x 10^5 cells were added to each well of a 6-well plate. After 1 day of cell attachment, the culture was replaced with a serum-free medium and treated with IFN-γ (Sigma Aldrich, St. St. Louis, MO, USA) at a concentration of 10 ng/mL to induce an environment similar to atopic dermatitis. As a positive control group, 1 µM dexamethasone (Sigma Aldrich) was used. As experimental groups, the cells were treated with Cyclo(Gly-Pro) (Biosynth Ltd, Berkshire, UK) at concentrations of 1, 10, and 100 ppm. […]
(§3) The cDNA amplification was performed by 40 cycles of amplification, wherein each cycle has the following conditions: 50 °C for 2 minutes, 95 °C for 10 minutes, 40 cycles of 95°C for 10 seconds, and 60°C for 1 minute. GAPDH was used as an ISTD material, and the mRNA expression levels were expressed as relative values compared to the negative control group. […]

CCL22 = assay: Marker gene expression in IFN-γ atopic dermatitis cell model (HaCaT), real-time PCR: CCL22
Description: as §1, §2, §3

IL-13 = assay: Marker gene expression in IFN-γ atopic dermatitis cell model (HaCaT), real-time PCR: IL-13
Description: as §1, §2, §3

IL-22 = assay: Marker gene expression in IFN-γ atopic dermatitis cell model (HaCaT), real-time PCR: IL-22
Description: as §1, §2, §3

sIL-2R = assay: Marker gene expression in IFN-γ atopic dermatitis cell model (HaCaT), real-time PCR: sIL-2R
Description: as §1, §2, §3

IL-31 = assay: Marker gene expression in IFN-γ atopic dermatitis cell model (HaCaT), real-time PCR: IL-31
Description: as §1, §2, §3

filaggrin (FLG) = assay: Marker gene expression in IFN-γ atopic dermatitis cell model (HaCaT), real-time PCR: filaggrin
Description: as §1, §2, §3

O=C1NCC(=O)N2CCCC12 (stereo not shown) [Cyclo(Gly-Pro), hexahydropyrrolo[1,2-a]pyrazine-1,4-dione]
relative expression levels of CCL17 (CCL17): decreased
relative expression levels of CCL22 (CCL22): decreased
relative expression levels of IL-13 (IL-13): decreased
relative expression levels of IL-22 (IL-22): decreased
relative expression levels of sIL-2R (sIL-2R): decreased
relative expression levels of IL-31 (IL-31): decreased
relative expression levels of filaggrin (FLG) (filaggrin (FLG)): increased
